PubChem BioAssay AID179 (DTP/NCI, 2004)
Activity calls are given as the source filed them.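 The calls were made as follows: active = compounds giving half or more protection of infected cells from virus-caused growth loss, again on retest; inactive = the rest.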

Tested on: CEM cells HIV-1 protection, formazan growth assay
Test: NCI AIDS Antiviral Assay
Conditions: for IC50: measured here: growth of uninfected CEM cells
Outline: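 Steps: treat uninfected and HIV-1-infected human CEM cells at five drug levels; quantify growth by soluble formazan; retest any compound reaching 50% protection; classify actives from the retest.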

| SMILES | EC50 [µM] | IC50 [µM] | outcome |
| --- | --- | --- | --- |
| CN1C(=O)CN2CCc3ccccc3C2c2cc(Cl)ccc21 (stereo not drawn) | > 200 | 129 | – |
| COc1cc(/C=C/c2ccc(/C=C/c3cc(OC)c(OC)c(OC)c3)cc2)cc(OC)c1OC | – | – | inactive |
| O=c1cn[nH]c2c(Br)cccc12 | > 479 | 275 | – |
| N[C@@H](CCC(=O)NCP(=O)(O)O)C(=O)O | > 200 | > 200 | – |
| CC1=Nn2c(nc3sc4c(c3c2=O)CCCC4)SC1 | – | – | inactive |
| Cc1ccc(NC(=O)c2cc(S(=O)(=O)N3CCNNC3=O)c(S)cc2Cl)cc1 | 30.2 | 195 | – |
| C=CCn1c(-c2ccc(-c3cs/c(=N\N=O)n3CC=C)cc2)cs/c1=N\N=O | > 100 | > 100 | – |
| CC(=O)NNc1nc(C)c(C(=O)NNC(=O)C(=O)Nc2nc3ccc([N+](=O)[O-])cc3s2)s1 | > 141 | 33.1 | – |
| NS(=O)(=O)c1ccc(N=NC2Sc3nc4ccccc4n3C2=O)cc1 (stereo not drawn) | – | – | inactive |
| Cc1cn([C@H]2C[C@@H]3[C@@H](COC(CCCC[Se]c4ccccc4)N3O)O2)c(=O)[nH]c1=O (stereo partly drawn) | 14.8 | 105 | – |
| c1cn[nH]c1 | > 3630 | 1780 | – |
| O=c1c(O)c(-c2ccc(Cl)cc2)oc2ccccc12 | > 200 | 4.07 | – |
| S=C(Nc1ccc(Br)cn1)Nc1ccccc1-c1ccccc1 | > 2 | 0.389 | – |
| O=C(c1ccccc1)N1CCC(Nc2cccnc2)O1 (stereo not drawn) | > 200 | 105 | – |
| COC(=O)c1c(C#N)[nH]c(-c2ccsc2)c1C(=O)OC | > 200 | 52.5 | – |
| S=C(N/N=C\c1ccccn1)N/N=C\c1ccccn1 | > 2 | 0.813 | – |
| Cc1ccc(S(=O)(=O)N2CCN(CCO)CCN(S(=O)(=O)c3ccc(C)cc3)CCN(CCO)CC2)cc1 | > 200 | 34.7 | – |
| COc1ccc(-c2c(C)c(C)nc(Cl)c2C#N)c(OCc2ccccc2)c1OC | – | – | inactive |
| CO/C1=C\C(C)=C\C(C)C(O)C(C)C/C(C)=C/C=C/C(OC)C(C(C)C(O)C(C)C2(O)CC(O)C(C)C(C(C)C)O2)OC1=O (stereo not drawn) | > 0.2 | 0.0129 | – |
| Cc1ccc(-c2cssc2=S)cc1 | > 200 | > 200 | – |
| CCc1ccccc1N1CCN(C(=O)c2cc(OC)c(OC)c(OC)c2)CC1 | > 93.3 | 0.0295 | – |
| O=C(N/N=C(\c1ccccc1)c1ccccn1)NC1CCCCC1 | – | – | inactive |
| NC(CO)C(=O)NCCS(=O)(=O)O (stereo not drawn) | > 100 | > 100 | – |

| SMILES | EC50 [µM] | IC50 [µM] | outcome |
| --- | --- | --- | --- |
| CC1=CCC[C@H]2[C@](C)(CC3=CC(=O)C(Sc4ccccc4)=CC3=O)[C@@H](C)CC[C@]12C | > 200 | 1.32 | – |
| COc1ccc(N=c2ssc(SC)c2-c2ccccc2)cc1 | > 200 | 46.8 | – |
| COC(=O)c1ccc(CSc2ccccc2)cc1 | > 28.2 | > 28.2 | – |
| CN(C)c1nc2oc(-c3ccccc3)c(-c3ccccc3)c2c2nnnn12 | – | – | inactive |
| C=C1c2[nH]c3c([N+](=O)[O-])c(OC)ccc3c2CCN1C(C)=O | – | – | inactive |
| COc1cccc(C=C(C(C)=O)C(C)=O)c1 | > 120 | 58.9 | – |
| O=C1C(Cl)C(c2ccc([N+](=O)[O-])cc2)N1n1cnc2ccccc2c1=O (stereo not drawn) | > 7.41 | > 7.41 | – |
| CC(O)CN1c2ccccc2Sc2ccc(Cl)cc21 (stereo not drawn) | > 200 | 42.7 | – |
| CC(C)N(C(=O)C12CC3CC(CC(C3)C1)C2)C(C)C | > 135 | 41.7 | – |
| CCCCCC(=O)n1[nH]c(=O)n(-c2ccc(OC)cc2)c1=O | > 200 | > 200 | – |
| S=C(N/N=C/c1ccccn1)N1CC2CCC(CC2)C1 | > 200 | 0.0631 | – |
| COc1ccc(C[C@H](N)C(=O)N2C[C@@H](CO)C[C@@H](n3ccc(=O)[nH]c3=O)C2)cc1 | > 309 | > 309 | – |
| S=C(SSC(=S)N(Cc1ccccc1)Cc1ccccc1)N(Cc1ccccc1)Cc1ccccc1 | > 200 | 15.1 | – |
| CC1=NC(=O)CC2=C1C(C)N(Cc1ccccc1)C2=O (stereo not drawn) | > 355 | > 355 | – |
| O=C(CCc1nc(=S)[nH][nH]1)Nc1cc(Cl)ccc1Cl | > 407 | > 407 | – |
| CC1=NN2C(c3ccc(Cl)cc3)=CSC2=NC(C)(C)C1 | > 162 | 93.3 | – |
| O=C(CC(C(=O)c1ccsc1)c1ccccc1)c1ccccc1 (stereo not drawn) | > 200 | 174 | – |
| O=C(C(=O)n1ncc(Cl)c(Cl)c1=O)n1ncc(Cl)c(Cl)c1=O | > 93.3 | 50.1 | – |
| CON(C)C(=O)C(C)NC(=O)OC(C)(C)C (stereo not drawn) | > 155 | > 155 | – |
| O=C(O)C(Cc1ccccc1)N1C(=O)N/C(=C\c2ccc(F)cc2)C1=O (stereo not drawn) | – | – | inactive |
| CC(CCC#N)(CCC#N)C(=O)CC(O)(C(F)(F)F)C(F)(F)F | > 200 | 2.34 | – |
| [Br][Sn]12[c]3ccccc3CN(Cc3cccc[c]31)Cc1cccc[c]12 | > 200 | > 200 | – |
| COc1ccc(-c2cc(-c3cc(C)cc(Br)c3O)no2)cc1 | > 200 | > 200 | – |

| SMILES | EC50 [µM] | IC50 [µM] | outcome |
| --- | --- | --- | --- |
| N[C@@H]1C(CO)NC[C@@H]1CO (stereo partly drawn) | > 200 | > 200 | – |
| O=C(/C=C/c1ccc(O)c(O)c1)OC1C[C@@](O)(C(=O)O)C[C@@H](O)[C@H]1OC(=O)/C=C/c1ccc(O)c(O)c1 (stereo partly drawn) | > 347 | 155 | – |
| CCOC(OCC)c1ccccc1.[C-]#[O+].[C-]#[O+].[C-]#[O+].[Cr] | > 20 | 2.04 | – |
| COC(=O)/C(=N\NC(=O)c1ccccc1O)C(C#N)c1ccccc1 (stereo not drawn) | > 741 | 5.62 | – |
| O=C1N(Cc2ccccc2)[C@H]2CS(=O)(=O)C[C@@H]2N1Cc1ccccc1 | > 200 | > 200 | – |
| O=C(O)c1c[nH]c2c([N+](=O)[O-])cccc2c1=O | > 1070 | 9.12 | inactive |
| COc1cc(C(=O)O)ccc1OS(=O)(=O)O | > 200 | > 200 | – |
| C(CCC[Te][Te]CCCCCCOC1CCCCO1)CCOC1CCCCO1 (stereo not drawn) | – | – | inactive |
| Cc1cccc(CC(C)(C)C)c1NC(=O)C(=O)C(C(=O)c1ccc2ccccc2c1)C1OC(=O)c2ccccc21 (stereo not drawn) | > 126 | 56.2 | – |
| CN1C/C(=C\c2cccs2)C2=NC(=S)NC(c3cccs3)C2C1 (stereo not drawn) | > 200 | 36.3 | – |
| CCOC(=O)C(=O)Nc1nc2ccc(C)cc2s1 | – | – | inactive |
| O=c1[nH]c2ccccc2c2oc(-c3ccccc3)nc12 | > 100 | > 100 | – |
| N#C/C(=C/N1C(=O)/C(=C/c2ccc([N+](=O)[O-])cc2)SC1=S)c1nc2ccccc2s1 | > 200 | 15.5 | – |
| COc1cc(Cl)cc(=O)c(O)c1OC | > 437 | 20.9 | – |
| OC(CCN1CCOCC1)(c1cccc(Cl)c1)C1CCCCC1 (stereo not drawn) | > 200 | 41.7 | – |
| CC(C)(C)OC1=C(OC(C)(C)C)C(O)(c2ccccc2)C1=O (stereo not drawn) | – | – | inactive |
| O=c1[nH]c(=O)n(C2CC(O)C(CO)O2)cc1Oc1ccccc1 (stereo not drawn) | > 200 | > 200 | – |
| O=C(CCn1ccnc1)N1CCN(c2ccccc2)CC1 | > 871 | 646 | – |
| CCOC(=O)C12CCSC1C1(C#N)C(C#N)=CC2(N=P(c2ccccc2)(c2ccccc2)c2ccccc2)n2c(=O)n(-c3ccccc3)c(=O)n21 (stereo not drawn) | > 26.3 | > 26.3 | – |
| COc1cc(-c2ccc(N=Nc3cc(S(=O)(=O)O)c4ccccc4c3O)c(OC)c2)ccc1N=Nc1cc(S(=O)(=O)O)c2ccccc2c1O | 135 | 141 | – |
| Nc1ncnc2c1ncn2[C@H]1[C@H](CO)[C@@H](CO)C1(F)F | > 200 | 155 | – |
| NC(=O)c1ncn(CC2(CO)CCC2)n1 | > 200 | > 200 | – |
| CCOC(=O)C(C)c1nc2cc(C(F)(F)F)ccc2[nH]c1=O (stereo not drawn) | > 200 | 81.3 | – |

| SMILES | EC50 [µM] | IC50 [µM] | outcome |
| --- | --- | --- | --- |
| CN(C)C(=S)N/N=C\C=N/NC(=S)N(C)C | > 0.2 | 0.117 | – |
| CC1=NN(c2ccccc2)C(=O)/C1=C1\SS/C(=C2\C(=O)N(c3ccccc3)N=C2C)S1 | > 100 | > 100 | – |
| COc1ccc(C(=O)/C=C/c2ccncc2)cc1OC | > 200 | 3.02 | – |
| OC1(c2ccc(Cl)cc2)c2ccccc2C2=Nc3ccccc3CN21 (stereo not drawn) | > 200 | 115 | – |
| COc1ccc(C(CC(=O)c2cccs2)C(=O)c2cccs2)cc1 (stereo not drawn) | > 200 | > 200 | – |
| Cc1ccc(S(=O)OC23CC4CC(CC(C4)C2)C3)cc1 (stereo not drawn) | – | – | inactive |
| CCOC(=O)/C(=C\c1ccc(Br)cc1)P(=O)(OCC)OCC | > 331 | 6.76 | – |
| O=C1C(=O)N(C23CC4CC(CC(C4)C2)C3)C(=S)N1c1ccccc1 | > 200 | 110 | – |
| Cc1ccc(NC(=O)NC23CC4CC(CC(F)(C4)C2)C3)cc1 | > 61.7 | > 61.7 | – |
| COc1ccc2c(c1)[n+](=O)c(C(C)=O)c(C)n2[O-] | > 1000 | 355 | – |
| C=C1C(=O)O[C@H]2C3C(=C(C)CC[C@@H]12)C(=O)[C@@H]1OC31C (stereo partly drawn) | > 200 | 0.676 | – |
| COC(=O)c1ccc(C)cc1CC1Cc2cccc(C)c2C1=O (stereo not drawn) | > 200 | 5.37 | – |
| CCCCNCC(=O)O[C@]1(CC)C(=O)OCc2c1cc1n(c2=O)Cc2cc3ccccc3nc2-1 | > 10 | 0.0776 | – |
| COc1ccccc1CC1(O)OC(=O)c2ccccc21 (stereo not drawn) | > 200 | > 200 | – |
| COc1ccc(Cc2c[n+](C)cc3cc(N=O)c(OC)cc23)cc1O | > 200 | > 200 | – |
| CC(=O)Nc1ccc(SC#N)c2c(NC(C)=O)cccc12 | – | – | inactive |
| S=C1NC=CC(S)N1 (stereo not drawn) | > 200 | > 200 | – |
| Clc1ccc(C2=CC(c3ccccc3)N3C(=N[C@H]4CCCC[C@@H]43)N2)cc1 (stereo partly drawn) | > 100 | 4.68 | – |
| C=C1CC[C@]2(C)C3CC[C@]4(C)C(C(C)CCC(=O)O)CCC4[C@@H]3CC[C@@H]2C1 (stereo partly drawn) | > 5.13 | > 5.13 | – |
| O=C1c2ccccc2C(=O)c2c1oc1cc(O)c(Cl)cc21 | > 16.6 | > 16.6 | – |
| Oc1ccccc1C(c1cc2c(cc1O)OCO2)N1CCOCC1 (stereo not drawn) | > 200 | 11 | – |
